Test system: SARS-CoV-2 (WT, D614G)
Format: cell-based
Conditions: 50 µM

alpha-1-antitrypsin [A1AT]
inhibition of SARS-CoV-2 replication / infection: 45%

From patent US20240350597A1, “PROTEASE INHIBITORS” (University College Dublin, priority 2023, published 2024)
